Marks after values point to notes of the source that are not given here.
How the values were obtained:
Format in all cases: in vivo
[1] = tested on: Septoria tritici (the causal agent of wheat leaf blotch); assay: Test B: wheat leaf blotch, preventive spray on wheat seedlings, visual disease rating; details: wheat leaf blotch, preventive spray on wheat seedlings
In short: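 Wheat seedlings sprayed to run-off with compound suspension (acetone/water with 250 ppm Trem 014; 200 ppm ≈ 800 g/ha, some at 40 ppm), inoculated next day with Septoria tritici spores. 48 h saturated humidity at 24 °C, then 19 days at 20 °C; visual rating, 100 = full control.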

[2] = tested on: Blumeria graminis f. sp. tritici (also known as Erysiphe graminis f. sp. tritici, the causal agent of wheat powdery mildew); assay: Test D: wheat powdery mildew, preventive spray on wheat seedlings, visual disease rating; details: wheat powdery mildew, preventive spray on wheat seedlings
In short: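 Compound suspended in acetone/water (50/50) with 250 ppm Trem 014 and sprayed to run-off on wheat seedlings (200 ppm ≈ 800 g/ha), then inoculated next day with spore dust. Disease rated visually after 8 days at 20 °C as % control relative to untreated plants (0-100).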

[3] = tested on: Botrytis cinerea (the causal agent of tomato Botrytis); assay: Test C: tomato Botrytis, preventive spray on tomato seedlings, visual disease rating; details: tomato Botrytis, preventive spray on tomato seedlings
In short: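 Test suspension (acetone/water with 250 ppm Trem 014; 200 ppm equivalent to 800 g/ha) sprayed to run-off on tomato seedlings; B. cinerea spores inoculated next day. After 48 h saturated humidity at 20° C then 3 days at 24° C, disease rated visually as % control relative to untreated controls (0–100).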

[4] = tested on: Puccinia recondite f. sp. tritici (the causal agent of wheat leaf rust); assay: Test A: wheat leaf rust, preventive spray on wheat seedlings, visual disease rating; details: wheat leaf rust, preventive spray on wheat seedlings
In short: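 Wheat seedlings were sprayed to run-off with compound suspended in acetone/water containing 250 ppm Trem 014 (200 ppm ≈ 800 g/ha; some at 40 ppm). Puccinia recondite spores were inoculated the next day. Plants were held 24 h saturated at 20° C, then 7 days at 20° C, and disease control was rated visually on a 0–100 scale against controls.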

[5] = no asterisk (standard test suspension concentration, not 40 ppm)
[6] = asterisk: 40 ppm test suspension

SMILES	Test B rating (100 = 100% disease control, 0 = no disease control relative to the controls) [1, 5]	Test D rating (100 = 100% disease control, 0 = no disease control relative to the controls) [2, 5]	Test C rating (100 = 100% disease control, 0 = no disease control relative to the controls) [3, 5]	Test A rating (100 = 100% disease control, 0 = no disease control relative to the controls) [4, 5]	Test B rating (100 = 100% disease control, 0 = no disease control relative to the controls) [1, 6]	Test D rating (100 = 100% disease control, 0 = no disease control relative to the controls) [2, 6]	Test C rating (100 = 100% disease control, 0 = no disease control relative to the controls) [3, 6]	Test A rating (100 = 100% disease control, 0 = no disease control relative to the controls) [4, 6]
Cc1ncc(C(O)c2ccc(F)cc2Br)n1-c1c(F)cc(F)cc1Br (stereo not drawn) [compound 94]	100%	56%	99%	100%	–	–	–	–
OC(c1ccc(F)cc1Br)c1cnc(C2CC2)n1-c1c(F)cccc1Br (stereo not drawn) [compound 95]	0%	0%	0%	0%	–	–	–	–
OC(c1ccc(F)cc1F)c1c(Br)ncn1-c1c(F)cccc1F (stereo not drawn) [compound 96]	–	–	–	–	100* %	0* %	40* %	68* %
Cc1ncc(C(O)c2ccc(F)cc2F)n1-c1c(F)cccc1F (stereo not drawn) [compound 97]	–	–	–	–	100* %	0* %	0* %	95* %
Cc1nc(Cl)c(C(O)c2ccc(F)cc2Cl)n1-c1c(F)cccc1F (stereo not drawn) [compound 98]	–	–	–	–	100* %	99* %	100* %	100* %
Cc1nc(Br)c(C(O)c2ccc(F)cc2Cl)n1-c1c(F)cccc1F (stereo not drawn) [compound 99]	–	–	–	–	100* %	98* %	99* %	100* %
Cc1nc(Cl)c(C(O)c2c(F)cc(F)cc2F)n1-c1c(F)cccc1F (stereo not drawn) [compound 100]	–	–	–	–	100* %	82* %	97* %	100* %
Cc1cc(F)ccc1C(O)c1c(C)nc(Cl)n1-c1ccc(F)cc1F (stereo not drawn) [compound 104]	100%	97%	99%	100%	–	–	–	–
Cc1nc(Cl)c(C(O)c2c(F)cccc2F)n1-c1c(F)cccc1F (stereo not drawn) [compound 105]	–	–	–	–	100* %	64* %	85* %	99* %
Cc1nc(Br)c(C(O)c2c(F)cccc2F)n1-c1c(F)cccc1F (stereo not drawn) [compound 106]	–	–	–	–	100* %	43* %	91* %	99* %
OC(c1ccc(F)cc1F)c1c(Br)nc(Br)n1-c1c(F)cc(F)cc1Cl (stereo not drawn) [compound 107]	100%	94%	100%	100%	–	–	–	–
OC(c1ccc(F)cc1F)c1c(Br)nc(Cl)n1-c1c(F)cc(F)cc1Cl (stereo not drawn) [compound 108]	–	–	–	–	100* %	99* %	67* %	100* %

Source: US20130143929A1, “FUNGICIDAL IMIDAZOLES” (EI DU PONT DE NEMOURS AND COMPANY, priority 2010, published 2013)
